The test system of series [1] is Bmi-1 protein. Briefly: Sandwich ELISA Assay (Bmi-1 protein level in HT-1080 cells after compound treatment). The series is classed as cell-based. The note with it: Table 1, Bmi-1 sandwich ELISA, read-out: ELISA EC50 value for Bmi-1 protein. An outline of the steps:
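HT-1080 cells exposed to compounds for 40–48 h at 37 °C (0.5% DMSO final), then lysed. Bmi-1 in lysates measured by sandwich ELISA (mouse monoclonal capture, rabbit anti-Bmi-1 detection, HRP anti-rabbit, TMB), read at OD450 with OD570 reference against a recombinant Bmi-1 standard curve (0–8000 pg/mL).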

For the compound `CCOC(=O)n1nc(C)c(-c2cncc(Nc3ccc(C(F)(F)F)cc3)n2)c1C` [compound 278, ethyl 3,5-dimethyl-4-(6-{[4-(trifluoromethyl)phenyl]amino}pyrazin-2-yl)-1H-pyrazole-1-carboxylate], the melting point (in general, the temperature, or range, at which the solid turns liquid) fell in the range of 122 to 123 °C. Also, the EC50 (usually the concentration needed to bring the measured effect to its halfway point) in series [1] is 100 to 3000 nM.

Turning to `Fc1ccn2nc(C3CC3)c(-c3cncc(Nc4ccc(C(F)(F)F)cc4)n3)c2c1` [compound 535, 6-(2-cyclopropyl-5-fluoropyrazolo[1,5-a]pyridin-3-yl)-N-[4-(trifluoromethyl)phenyl]pyrazin-2-amine], the melting point fell in the range of 122 to 125 °C. Further, in series [1], the EC50 is 10 to 100 nM.

`Cc1cc(Nc2cc(C#N)cc(-c3c(C)nc4c(F)cc(F)cn34)n2)cnc1OC(F)F` [compound 471, 2-{[6-(difluoromethoxy)-5-methylpyridin-3-yl]amino}-6-(6,8-difluoro-2-methylimidazo[1,2-a]pyridin-3-yl)pyridine-4-carbonitrile] registered a melting point of 236 to 238 °C. In series [1], the EC50 is 100 to 3000 nM.

As to `Fc1ccc2nc(C3CC3)c(-c3cncc(Nc4ccc(OC(F)F)cc4)n3)n2c1` [compound 337, 6-(2-cyclopropyl-6-fluoroimidazo[1,2-a]pyridin-3-yl)-N-[4-(difluoromethoxy)phenyl]pyrazin-2-amine], the melting point is 183 to 185 °C. In addition, in series [1], the EC50 is under 1 nM.

In the case of `N#Cc1cc(Nc2ccc(C(F)(F)F)cc2)nc(-c2c(C(F)F)nc3ccc(F)cn23)c1` [compound 466, 2-[2-(difluoromethyl)-6-fluoroimidazo[1,2-a]pyridin-3-yl]-6-{[4-(trifluoromethyl)phenyl]amino}pyridine-4-carbonitrile], the melting point was 249 to 251 °C. For the same compound, the EC50 in series [1] was 10 to 100 nM.

On to `CCc1nc2ccc(F)cc2n1-c1cncc(Nc2ccc(OC)cc2)n1` [compound 621, 6-(2-ethyl-6-fluoro-1H-benzimidazol-1-yl)-N-(4-methoxyphenyl)pyrazin-2-amine], for which the melting point was 218 to 220 °C. Also, the EC50 in series [1] is under 1 nM.

The compound `FC(F)(F)c1ccc(Nc2cncc(-c3cccc4nc(C5CC5)cn34)n2)cc1` [compound 89, 6-(2-cyclopropylimidazo[1,2-a]pyridin-5-yl)-N-[4-(trifluoromethyl)phenyl]pyrazin-2-amine] had a melting point of 266 to 268 °C. The EC50 in series [1] was in the range of 100 to 3000 nM.

Regarding `COc1cccc(Nc2cncc(-c3c(C)nc4ccc(F)cn34)n2)c1` [compound 596, 6-(6-fluoro-2-methylimidazo[1,2-a]pyridin-3-yl)-N-(3-methoxyphenyl)pyrazin-2-amine], the melting point was in the range of 270 to 273 °C. For the same compound, in series [1], the EC50 was 1 to 10 nM.

In turn, `Cc1nc2ccc(F)cn2c1-c1cncc(Nc2ccc(C(F)(F)F)cc2)n1` [compound 244, 6-(6-fluoro-2-methylimidazo[1,2-a]pyridin-3-yl)-N-[4-(trifluoromethyl)phenyl]pyrazin-2-amine] had a melting point of 160 to 162 °C. The concentration giving a half-maximal response (EC50) in series [1] lay within 1 to 10 nM.

Take `Fc1ccc2nc(C(F)F)c(-c3cncc(Nc4ccc(C(F)(F)F)cc4)n3)n2c1` [compound 472, 6-[2-(difluoromethyl)-6-fluoroimidazo[1,2-a]pyridin-3-yl]-N-[4-(trifluoromethyl)phenyl]pyrazin-2-amine]: the melting point is 180 to 182 °C. Also, the EC50 in series [1] was 1 to 10 nM.

Take `Cc1nc2cc(F)ccc2n1-c1cncc(Nc2ccc(OC(F)(F)F)cc2)n1` [compound 206, 6-(5-fluoro-2-methyl-1H-benzimidazol-1-yl)-N-[4-(trifluoromethoxy)phenyl]pyrazin-2-amine]: the melting point was in the range of 248 to 250 °C. In addition, the EC50 in series [1] is 100 to 3000 nM.

The compound `CCc1nc2ccc(F)cc2n1-c1cncc(Nc2cccc(F)c2)n1` [compound 626, 6-(2-ethyl-6-fluoro-1H-benzimidazol-1-yl)-N-(3-fluorophenyl)pyrazin-2-amine] displayed a melting point of 228 to 230 °C. For the same compound, in series [1], the EC50 lay within 100 to 3000 nM.

As to `Cc1nn(C)c(C)c1-c1cccc(Nc2ccc(C(F)(F)F)cc2)n1` [compound 145, N-[4-(trifluoromethyl)phenyl]-6-(1,3,5-trimethyl-1H-pyrazol-4-yl)pyridin-2-amine], the melting point is 48 to 50 °C. Also, the EC50 in series [1] was in the range of 10 to 100 nM.

For `CCc1nc2ccc(F)cc2n1-c1cncc(Nc2ccc(OC(F)F)cc2)n1` [compound 260, N-[4-(difluoromethoxy)phenyl]-6-(2-ethyl-6-fluoro-1H-benzimidazol-1-yl)pyrazin-2-amine], the melting point lay in the range of 205 to 207 °C. In addition, the EC50 in series [1] lay in the range of 1 to 10 nM.

Consider `FC(F)(F)c1ccc(Nc2cncc(-c3cccc4nc(C5CCC5)cn34)n2)cc1` [compound 114, 6-(2-cyclobutylimidazo[1,2-a]pyridin-5-yl)-N-[4-(trifluoromethyl)phenyl]pyrazin-2-amine], for which the melting point fell in the range of 288 to 290 °C. Moreover, in series [1], the EC50 was in the range of 100 to 3000 nM.

As for `FC(F)Oc1ccc(Nc2cncc(-c3cccc4nc(C5CCC5)cn34)n2)cc1` [compound 115, 6-(2-cyclobutylimidazo[1,2-a]pyridin-5-yl)-N-[4-(difluoromethoxy)phenyl]pyrazin-2-amine], the melting point fell in the range of 252 to 253 °C. The EC50 in series [1] was 10 to 100 nM.

As for `Nc1cc(Nc2ccc(OC(F)F)c(F)c2)nc(-c2c(C3CC3)nc3ccc(F)cn23)c1` [compound 366, 6-(2-cyclopropyl-6-fluoroimidazo[1,2-a]pyridin-3-yl)-N^2-[4-(difluoromethoxy)-3-fluorophenyl]pyridine-2,4-diamine], the melting point was 169 to 170 °C. In series [1], the EC50 is 100 to 3000 nM.

Turning to `Cc1nc2ccc(F)cn2c1-c1cc(C#N)cc(Nc2ccc(OC(F)(F)F)cc2)n1` [compound 249, 2-(6-fluoro-2-methylimidazo[1,2-a]pyridin-3-yl)-6-{[4-(trifluoromethoxy)phenyl]amino}pyridine-4-carbonitrile], the melting point was in the range of 209 to 210 °C. Further, the EC50 in series [1] lay in the range of 10 to 100 nM.

For `Cc1nc2c(F)cc(F)cn2c1-c1cc(C#N)cc(Nc2ccc(C(F)(F)F)cc2)n1` [compound 441, 2-(6,8-difluoro-2-methylimidazo[1,2-a]pyridin-3-yl)-6-{[4-(trifluoromethyl)phenyl]amino}pyridine-4-carbonitrile], the melting point fell in the range of 243 to 245 °C. Also, the EC50 in series [1] lay within 1 to 10 nM.

`Cc1ccc(Nc2cc(C#N)cc(-c3c(C)nc4ccc(F)cn34)n2)cc1` [compound 648, 2-(6-fluoro-2-methylimidazo[1,2-a]pyridin-3-yl)-6-[(4-methylphenyl)amino}pyridine-4-carbonitrile] gave a melting point of 185 to 188 °C. Further, the EC50 in series [1] lay in the range of 1 to 10 nM.

On to `Cc1nc2cc(F)ccc2n1-c1cncc(Nc2ccc(C(F)(F)F)cc2)n1` [compound 204, 6-(5-fluoro-2-methyl-1H-benzimidazol-1-yl)-N-[4-(trifluoromethyl)phenyl]pyrazin-2-amine], for which the melting point lay in the range of 272 to 275 °C. In addition, the EC50 in series [1] lay within 10 to 100 nM.

For the compound `Fc1ccc2c(c1)nc(C1CC1)n2-c1cncc(Nc2ccc(OC(F)F)cc2)n1` [compound 227, 6-(2-cyclopropyl-5-fluoro-1H-benzimidazol-1-yl)-N-[4-(difluoromethoxy)phenyl]pyrazin-2-amine], the melting point was in the range of 188 to 190 °C. Besides, the half-maximal effective concentration (EC50) in series [1] was in the range of 10 to 100 nM.

In the case of `Cc1nc2cc(F)c(F)cc2n1-c1cncc(Nc2ccc(C(F)F)cc2)n1` [compound 501, 6-(5,6-difluoro-2-methyl-1H-benzimidazol-1-yl)-N-[4-(difluoromethyl)phenyl]pyrazin-2-amine], the melting point fell in the range of 209 to 211 °C. Also, in series [1], the EC50 was 10 to 100 nM.

Turning to `Cc1nc2ccc(F)cn2c1-c1cc(C#N)cc(Nc2ccc(OC(F)F)cc2)n1` [compound 248, 2-{[4-(difluoromethoxy)phenyl]amino}-6-(6-fluoro-2-methylimidazo[1,2-a]pyridin-3-yl)pyridine-4-carbonitrile], the melting point is 221 to 223 °C. In series [1], the EC50 fell in the range of 1 to 10 nM.

As to `Cc1cc(Nc2cc(C#N)cc(-c3c(C(F)F)nc4ccc(F)cn34)n2)cnc1OC(F)F` [compound 468, 2-{[6-(difluoromethoxy)-5-methylpyridin-3-yl]amino}-6-[2-(difluoromethyl)-6-fluoroimidazo[1,2-a]pyridin-3-yl]pyridine-4-carbonitrile], the melting point lay in the range of 239 to 241 °C. Further, in series [1], the EC50 fell in the range of 10 to 100 nM.

In the case of `Cc1nn(CC[C@H](O)CO)c(C)c1-c1cncc(Nc2ccc(C(F)(F)F)cc2)n1` [compound 404, (2S)-4-[3,5-dimethyl-4-(6-{[4-(trifluoromethyl)phenyl]amino}pyrazin-2-yl)-1H-pyrazol-1-yl]butane-1,2-diol], the melting point was in the range of 75 to 77 °C. The EC50 in series [1] was in the range of 100 to 3000 nM.

Compound `CCc1nn(C)c(CC)c1-c1cncc(Nc2ccc(C(F)(F)F)cc2)n1` [compound 332, 6-(3,5-diethyl-1-methyl-1H-pyrazol-4-yl)-N-[4-(trifluoromethyl)phenyl]pyrazin-2-amine] yielded a melting point of 59 to 60 °C. Further, in series [1], the EC50 fell in the range of 10 to 100 nM.
